According to paper PMC7324608 (Scientific Reports, 2020):
Substitutions are numbered along the chain they refer to.

What was measured:
HpHtrA wt = target: T1, HpHtrA wt (Helicobacter pylori, UniProt G2J5T2); experiment: HpHtrA oligomerization, non-reducing SDS-PAGE; design: (HpHtrA, G18-K475, UniProt G2J5T2); GST (N, cleaved yes); made in house; host or cells: E. coli BL21
T1 sequence (G2J5T2 18-475): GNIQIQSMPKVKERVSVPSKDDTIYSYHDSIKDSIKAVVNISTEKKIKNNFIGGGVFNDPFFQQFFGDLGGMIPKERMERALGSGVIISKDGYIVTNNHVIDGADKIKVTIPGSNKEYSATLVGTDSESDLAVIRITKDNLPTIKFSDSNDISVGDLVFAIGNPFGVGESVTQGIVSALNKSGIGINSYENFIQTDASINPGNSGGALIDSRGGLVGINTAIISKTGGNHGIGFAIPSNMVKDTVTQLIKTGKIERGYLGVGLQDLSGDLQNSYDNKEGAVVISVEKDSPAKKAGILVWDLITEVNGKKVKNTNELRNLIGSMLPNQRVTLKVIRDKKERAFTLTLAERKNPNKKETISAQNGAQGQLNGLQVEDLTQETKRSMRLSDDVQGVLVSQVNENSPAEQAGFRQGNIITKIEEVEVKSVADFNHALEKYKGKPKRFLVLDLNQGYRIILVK
Procedure: Non-reducing sample buffer without β-mercaptoethanol was added and the samples were separated by SDS-PAGE containing 0.1% casein (Carl Roth, Karlsruhe, Germany) as a substrate. The gel was incubated for 60 min in renaturing buffer (2.5% Triton X-100) and equilibrated for 30 min in developing buffer (50 mM Tris–HCl, pH 7.4, 200 mM NaCl, 5 mM CaCl2, and 0.02% Brij-35) at room temperature under gentle agitation. Afterwards, the gel was incubated for 24 h at 37 °C in developing buffer under gentle agitation. To visualize caseinolytic activity, the gel was stained in 0.5% Coomassie Brilliant Blue R250 (Carl Roth, Karlsruhe, Germany). For detection of multimers by SDS-PAGE, HpHtrA was separated by SDS-PAGE under non-reducing conditions. Proteins were visualized by staining with Coomassie Brilliant Blue G250. Independent experiments were repeated at least four times.

HpHtrA S166A = target: T2, HpHtrA S166A (Helicobacter pylori, UniProt G2J5T2, S166A); experiment: thermal shift assay; format: binding; design: (HpHtrA, G18-K475, UniProt G2J5T2); GST (N, cleaved yes); made in house; host or cells: E. coli BL21
T2 sequence (G2J5T2 18-475 S166A): T1 sequence (G2J5T2 18-475) with S149A
Procedure: (§1) Recombinant HpHtrA proteins (wt, S164A, D165A, S166A, D168A) in 50 mM HEPES buffer (pH 7.4) were mixed with SYPRO Orange (Sigma-Aldrich, Vienna, Austria) to final concentrations of 4 µM HpHtrA and 7 × SYPRO Orange in a 96-well PCR plate. […] Fluorescence data was collected using an Applied Bioscience StepOne Plus PCR cycler (Thermo Fisher Scientific, Schwerte, Germany) during a temperature ramp from 25–95 °C (0.5 °C per min) with a 4 min hold at 25 °C and 95 °C. SYPRO Orange binds to exposed hydrophobic regions within the denatured HpHtrA proteins, which increases the fluorescence of the dye[57],[58]. The fluorescence emission signal can then be used to determine the melting temperature of the protein, which is located at the infliction point of the fluorescence signal curve. The experiment was performed in triplicates.

HpHtrA D165A = target: T3, HpHtrA D165A (Helicobacter pylori, UniProt G2J5T2, D165A); experiment: thermal shift assay; format: binding; design: (HpHtrA, G18-K475, UniProt G2J5T2); GST (N, cleaved yes); made in house; host or cells: E. coli BL21
T3 sequence (G2J5T2 18-475 D165A): T1 sequence (G2J5T2 18-475) with D148A
Procedure: as §1

HpHtrA = target: T4, HpHtrA (Helicobacter pylori, UniProt G2J5T2); experiment: in vitro casein cleavage by HpHtrA (Coomassie SDS-PAGE); format: biochemical; details: 10 µg casein, 250 ng HpHtrA, 16 h, 37 °C; for effect on HtrA-mediated casein degradation: 1 mM
T4 construct: (HpHtrA, G18-K475, UniProt G2J5T2); GST (N, cleaved yes); made in house; host or cells: E. coli BL21
T4 sequence (G2J5T2 18-475): T1 sequence (G2J5T2 18-475)
Excerpt: The proteins were separated by SDS-PAGE and visualized by staining with Coomassie Brilliant Blue G250 (Lactan, Vienna, Austria). […] Proteins were separated using SDS-PAGE and blotted onto a nitrocellulose membrane. Human Cdh1 was detected by an antibody recognizing the EC5 domain of hCdh1 (Abcam, Cambridge, UK) and a polyclonal serum was used to detect HpHtrA[22]. Independent experiments were repeated at least three times.

[1] = low/increasing concentrations of ion

Structure (SMILES) | stabilization of HpHtrA wt oligomers (HpHtrA wt; low concentrations, Coomassie-stained SDS-PAGE, non-reducing) | thermal destabilization (ΔTm) (HpHtrA S166A; compared with wt and S164A) | thermal destabilization (ΔTm) (HpHtrA D165A; compared with wt and S164A) | concentration giving a slight inhibitory effect on casein cleavage (HpHtrA) [µM] | effect on HtrA-mediated casein degradation (HpHtrA) | concentration sufficient to enhance oligomerization or the stability of HpHtrA (HpHtrA wt; Coomassie-stained gel, non-reducing conditions) [µM] | thermal stabilization (ΔTm) (HpHtrA S166A; [1]) | thermal stabilization (ΔTm) (HpHtrA D165A; [1]) | IC100 (HpHtrA; read-out: concentration required to fully inhibit casein cleavage) [µM]
[Cu+2] [Cu^++, CuCl2] | only slightly stabilized | more strongly destabilized | more strongly destabilized | 250 | strongly inhibited |  |  |  | 
[Zn+2] [Zn^++, ZnCl2] |  |  |  | 250 | strongly inhibited | 50 | did not stabilize | did not stabilize | 500 to 1000
